Data published in patent publication US8012938B2, “Dermatological and/or cosmetic composition containing polypeptides” (ISP Investments Inc., priority 2004, dated 2011).
No end group written: not given here.

Key:
Format in all cases: cell-based
3T3-L1 cells = test: Oil red staining of lipid vacuoles of adipocytes; details: 0.5% solution at 50 ppm
Protocol: Undifferentiated 3T3-L1 preadipocyte cell lines were seeded in 8-well Lab-Tek slides (for oil red staining), in 12-well plates (for ATP measurement), in 24-well plates (for cAMP measurement) and in 6-well plates (for glycerol measurement) as well as with DMEM culture medium (4.5 g/l) containing antibiotics. These 3T3-L1 preadipocytes were capable of entering, under certain conditions, the terminal differentiation phase.
Once the 3T3-L1 cells had reached 100% confluence, they were differentiated by putting them into culture in various mediums, over a period of 6 to 8 days.
During the first 2 days, cells were cultured in the presence of IBMX, dexamethasone, and insulin diluted in DMEM culture medium at 4.5 g/l. Then, they were cultured for two days only in the presence of insulin diluted in DMEM culture medium at 4.5 g/l and, finally, the cells were cultivated for 2 to 3 days in culture medium containing exclusively DMEM 4.5 g/l.
Cell differentiation in mature adipocytes was visualized by the appearance of lipid droplets in the cytoplasm of the cells.
The principle of this evaluative test on the effect of peptides rests on a microscopic observation of the number and size of lipid vacuoles of adipocytes after staining. Adipocytes were incubated or not in the presence of the substance to be tested.
3T3-L1 cells, seeded in 8-well Lab-Teks, were treated with the peptide of SEQ ID NO:1, i.e. of sequence Pro-Leu-Asp-Thr-Ala-Lys-Val-Arg-Leu-Gln, representative of the peptide family according to the invention, placed in a 0.5% solution at 50 ppm. The active ingredient was added at various stages of culture: • At the start of the incubation and until the end of adipocyte differentiation (72 hours of culture until 100% confluence, then for the 6 days of differentiation); • 6 hours after incubation and until the end of cell differentiation (66 hours of culture until 100% confluence, then for the 6 days of differentiation); • Once cells differentiated in the adipocytes, they were treated with the active ingredient for 6, 24, or 48 hours. […]

[1] = system: differentiated 3T3-L1 cells; test: Measurement of intracellular cAMP; details: 0.5% solution at 50 ppm; 15 minutes, 30 minutes or 1 hour; compared to cells treated with isoproterenol 1 μM
Protocol: The objective of this test was to measure the variation of the intracellular concentration of cAMP in adipocytes, in order to deduce a possible activation of the phenomenon of lipolysis.
The test was carried out on differentiated 3T3-L1 cells. These adipocytes were treated with the peptide of (SEQ ID NO: 1), i.e. of sequence Pro-Leu-Asp-Thr-Ala-Lys-Val-Arg-Leu-Gln, representative of the peptide family according to the invention, placed in a 0.5% solution at 50 ppm, for periods of 15 minutes, 30 minutes, or 1 hour. In parallel, differentiated 3T3-L1 cells were also treated with isoproterenol (an agent that induces lipolysis), at 1 μM, thus forming a positive control.
After the various incubation periods, in the presence of the active ingredient being tested or in the presence of isoproterenol, the quantity of cAMP contained in adipocytes was measured using the “AMP Biotrak® EIA System” kit purchased from Amersham Biosciences as well as by a test principle, colorimetric ELISA. The kit made cell lysis possible through a solution allowing for the hydrolysis of cellular membranes and the release of intracellular cAMP in the medium. Followed by the binding of antibodies specific to intracellular cAMP extracted from samples, which is placed in competition with cAMP that has been coupled to the enzyme, peroxidase.

[2] = system: differentiated 3T3-L1 cells; test: Measurement of intracellular ATP; details: 0.5% solution at 50 ppm; period up to 96 hours
Protocol: The aim of this study was to determine the influence of the peptide according to the invention on the quantity of intracellular ATP. The study was carried out using an “ATP Bioluminescence Assay HS II” kit. Differentiated 3T3-L1 cells were treated with a 0.5% solution at 50 ppm, containing the peptide of SEQ ID NO: 1, representative of the peptide family according to the invention, for a period up to 96 hours. At the end of the incubation time, the wells were emptied of their medium and were rinsed with 2 ml of cold PBS before adding 250 μl of lysis buffer, provided by the kit. The cells were then scraped, and then collected separately in 14 ml tubes. Each well was rinsed with 2×500 μl of cold PBS and everything was again collected in the respective tubes. Each tube was then placed in the polytron for 10 seconds at 18000 rpm. From these samples, a dilution of 1/12000, using cold PBS, was carried out before each reading. ATP quantity assessment was performed on these samples: 50 μl of this dilution were placed in a luma-basin and 50 μl of […] were added. The reading of luminescence started after 10 seconds. The values were standardized compared to the quantity of proteins for each sample. Measurements were taken using a Biocounter M2010A LUMAC®/3M.

[3] = system: differentiated 3T3-L1 cells; test: Measurement of glycerol released by adipocytes; details: active ingredient at 0.5% (solution at 50 ppm); 1 h 30, 3 h, 5 h, 7 h and 24 h; versus control wells
Protocol: The purpose of this study was to determine the influence of the peptide according to the invention on glycerol release by adipocytes, glycerol being the result of lipolysis.
Differentiated 3T3-L1 cells were treated with a 0.5% solution at 50 ppm, containing the peptide of SEQ ID NO:1, representative of the peptide family according to the invention, for periods of 1 h 30, 3 h, 5 h, 7 h and 24 h.
The concentration of glycerol was determined using a series of enzymatic reactions leading to the formation of NADH of which the produced quantity was evaluated by spectrophometric readings at 340 nm, the formation of NADH being proportional to the quantity of glycerol released in the culture medium. An internal control of 1 mM glycerol was also used. The values were standardized in comparison to the quantity of proteins for each sample.

[4] = added at the start of incubation or 6 hours after incubation until end of differentiation, compared with control cells

Question: For “PLDTAKVRLQ [SEQ ID NO:1, peptide fragment from the UCP family]”, which cell morphology (3T3-L1 cells; [4]) is on record?
Answer: The cell morphology was “less round morphology”.

Question: What about the “content of intra-adipocyte lipid vesicles” value (3T3-L1 cells; [4]) of the same sequence?
Answer: Its value is “clearly decreased content of intra-adipocyte lipid vesicles”.

Question: And the “reduction of intra-adipocyte lipid vesicles in mature adipocytes” value (3T3-L1 cells; applied once differentiation was completed, for 6, 24 or 48 hours)?
Answer: The value was “no reduction was observed”.

Question: And the “intracellular quantity of cAMP” value [1]?
Answer: Its value is “no increase”.

Question: What about the “amount of intracellular ATP” value [2] of the same sequence?
Answer: Its value is “lack of increase”.

Question: What about the “glycerol release by differentiated cells” value [3] of the same sequence?
Answer: The value was “identical”.
